From US20240390404A1, “ANTI-HUMAN NOROVIRUS AGENT” (KEIO UNIVERSITY, priority 2018, published 2024)
Entries after “also recorded” stand apart in the source; their conditions may differ.

What was measured:
Format in all cases: cell-based
[1] = tested on: 2D organoid derived from intestinal stem cells; assay: Cytotoxicity of 2fp-fucose to 2D organoid (Trypan blue staining); details: 2fp-fucose 3.0 to 1,000 μM, 7 continuous days, versus no treatment (0 μM)
Description: The 2D organoid derived from intestinal stem cells refers to a 2D organoid for infection and culture of human diarrhea virus (including norovirus) disclosed in Patent Document 2. According to Patent Document 2, the 2D organoid is “obtained by Step 1 in which human intestinal epithelial stem cells, human intestinal epithelial cells, or a tissue including at least one of these cells is subjected to 3-dimensional culturing on the extracellular matrix, to thereby obtain a 3D organoid; and by Step 2 in which the above-obtained 3D organoid is dispersed to prepare single cells; the single cells are subjected to monolayer culturing on an extracellular matrix; and there is obtained a 2D organoid having a single-layer structure of the epithelial cells for forming the human intestinal cavity which include differentiated trophoblastic cells and caliciform cells.” By virtue of the 2D organoid, culturing human norovirus, which was not previously achieved, can be successfully performed.
The aforementioned 3D organoid is degraded by use of, for example, TrypLE™ Express (product of Thermo Fisher SCIENTIFIC), to thereby yield single cells. […]
The 2D organoid was treated with 2fp-fucose (3.0 to 1,000 μM) for 7 continuous days. In each case, the number of dead cells was determined through Trypan blue staining. […]

[2] = tested on: human norovirus GII. 6 (K2017 strain); assay: Human norovirus proliferation inhibition in 2D organoid after 2fp-fucose treatment, GII.6 strain; details: 3 days treatment before infection, days 3 and 6 after infection
Procedure: (§1) Feces of a human norovirus-infected patent contains a large amount of infectious human norovirus. Thus, the feces of a human norovirus-infected patient is suspended in distilled water or the like to a final concentration of about 10%, to thereby prepare a “10% feces suspension.” The 10% feces suspension is about 10-fold diluted with an ENRA medium. The diluted suspension is added to each of the aforementioned wells having the 2D organoid (5 μL/well) and subjected to incubation for about 3 hours, to thereby proliferate human norovirus. As a result of verification, it has been confirmed that human norovirus proliferates to about 100,000 times the initial count through the culture system employing the 2D organoid.
In the Example, there were tested strains of human norovirus obtained from feces of human norovirus infection patients through the aforementioned procedure and stocked before the test. Specifically, three strains belonging to the genetic group 2 (GII) which accounts for 80 to 90% of the infected patients were selected as test targets. The isolated strain lineages included in GII (FIG. 1) were GII. 6 belonging to “Lineage 1,” GII. […]
The effect of 2fp-fucose treatment on proliferation of human norovirus was investigated for each lineage of norovirus. […] 4, and the viral proliferation amount was determined on days 3 and 6 after infection (FIG. 4).

[3] = tested on: human norovirus GII.4 (K2017 strain); assay: Human norovirus proliferation inhibition in 2D organoid after agent pre-treatment, GII.4 strain
Procedure: as §1
In the Example, there were tested strains of human norovirus obtained from feces of human norovirus infection patients through the aforementioned procedure and stocked before the test. Specifically, three strains belonging to the genetic group 2 (GII) which accounts for 80 to 90% of the infected patients were selected as test targets. The isolated strain lineages included in GII (FIG. 1) were GII. 6 belonging to “Lineage 1,” GII. 3 belonging to “Lineage 2,” and GII.4 belonging to “Lineage 3” (GII. 6: K2017 strain, GII.3: TCH2004 strain, and GII. 4: K2017 strain).
The effect of 2fp-fucose treatment on proliferation of human norovirus was investigated for each lineage of norovirus. Specifically, after the 2fp-fucose treatment for 3 days, the 2D organoid was infected with each of the aforementioned norovirus strains GII.6, GII. 3, and GII. 4, and the viral proliferation amount was determined on days 3 and 6 after infection (FIG. 4).
Next, there was investigated the effect of the period of time (the number of days) of the 2fp-fucose treatment performed in advance on the anti-human norovirus action of the fucose analog. Specifically, the strain GII. 4 was treated with 2fp-fucose (several concentrations) for 1 to 4 days. […] However, in the group of 3-day treatment, the proliferation inhibition effect was observed by the 200 μM treatment with a certain range of variation in effectiveness. In the group of 4-day treatment, the proliferation inhibition effect was initially observed by 8 μM treatment, and the effect increased in a concentration-dependent manner to a 2fp-fucose concentration of 200 μM. […] Thus, the highest proliferation inhibition effect was obtained in the 2D organoid system through a 200 μM treatment for 3 to 4 days. The test was repeatedly performed three times. Error bars denote SEMs.
The 2D organoid was treated with an agent for 3 days. The tested agents were (a) 2fp-fucose (200 μM), (b) Sofosbuvir (1 μM), (c) Lamivudine (1 μM), (d) Ribavirin (400 μM), and (e) Mizoribine (100 μM). Subsequently, the thus-treated 2D organoid was infected with human norovirus (the norovirus strain GII.4), and the proliferation inhibition effect was determined (FIG. 6). The test was repeatedly performed three times. Error bars denote SEMs.

[4] = GII.4, groups of 1-day treatment and 2-day treatment with 2fp-fucose

Structure (SMILES): CC(=O)OC1O[C@@H](C)[C@@H](OC(C)=O)[C@@H](OC(C)=O)[C@@H]1F (stereo partly drawn) [2fp-fucose, (3S,4R,5R,6S)-3-fluoro-6-methyltetrahydro-2H-pyran-2,4,5-triyl triacetate]
- cell viability (number of dead cells, Trypan blue staining) [1]: no significant difference was observed in cell viability; also recorded: no effect on cell viability was confirmed
- concentration of complete viral proliferation inhibition [2]: ≥ 200 µM
- concentration of slight viral proliferation inhibition ([3]; GII.4 strain, 3 days treatment before infection): 40 µM
- concentration of complete viral proliferation inhibition ([3]; GII.4 strain, 3 days treatment before infection, days 3 and 6 after infection): ≥ 200 µM
- proliferation of human norovirus ([3]; GII.4, 4-day treatment, 1,000 μM): slight proliferation of human norovirus was observed
- viral RNA titer from day 0 to day 7 (proliferation inhibition effect) ([3]; GII.4, agent 200 μM, 3 days treatment before infection): no substantial increase in viral RNA titer was observed
- concentration at which the proliferation inhibition effect was observed ([3]; GII.4, group of 3-day treatment, certain range of variation in effectiveness): 200 µM
- concentration at which the proliferation inhibition effect was initially observed ([3]; GII.4, group of 4-day treatment): 8 µM
- proliferation inhibition effect [3, 4]: no proliferation inhibition effect
- proliferation of human norovirus 3 days after inoculation [3, 4]: ≥ 100 fold
- concentration giving the highest proliferation inhibition effect ([3]; GII.4, treatment for 3 to 4 days): 200 µM
